The results in this text go back to US10544112B2, “Identification of ebsulfur analogues with broad-spectrum antifungal activity” (priority 2017, dated 2020).

The test system of data set [1] is Murine red blood cells (mRBCs). The data set can be described thus: Hemolytic assay. As for the experimental part:
Hemolytic activity was determined as previously described with minor modifications (FIG. 3). […] Compounds were serially diluted in Eppendorf tubes containing H2O (100 μL). […] The tubes were then incubated for 1 h at 37° C. Tubes containing dd H2O (200 μL) and triton X-100® (1% v/v, 2 μt) served as negative (blank) and positive (100%) control, respectively. The percent hemolysis was calculated using the following equation: % hemolysis=[(absorbance of sample)−(absorbance of blank)]×100/(absorbance of positive control). Fifty percent hemolysis (HC50) values were defined as the concentrations of compounds required to lyse 50% of the mRBCs.

The subject of data set [2] is Aspergillus nidulans ATCC 38163 (strain L). The data set can be described thus: Antifungal MIC determination, filamentous fungi spores. It is filed as cell-based. The settings on record: strain L; spores. The gist of the method:
(§1)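 A modified CLSI M27-A3 protocol is used, with final compound levels from 12.5 to 0.02 μg/mL in two-fold steps. Cells are incubated at 5×10^3 CFU/mL in buffered RPMI 1640 at 35° C for 48 h.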

Data set [3] has as its system Aspergillus flavus ATCC MYA-3631 (strain K). The description is as above. The settings on record: all compounds. It is filed as cell-based. The gist of the method:
as §1

Data set [4] relates to Aspergillus terreus ATCC MYA-3633 (strain M). Described as above. Particulars: strain M; all compounds; spores. The data set is classed as cell-based. The gist of the method: as §1
The test system of data set [5] is C. albicans ATCC 64124 (strain B). It is filed as cell-based, Candida albicans. As for the experimental part: The efficiency of the compounds to kill C. albicans ATCC 64124 (strain B) was monitored using a previously published protocol. The cell suspensions were prepared to achieve an inoculum of approximately 1-4×10^5 CFU/mL in RPMI 1640 medium at 35° C. […] After fungal cell addition, at 0, 3, 6, 9, 12, and 24 h, the tubes were vortexed and 100 μL aliquots were removed from each solution, spread onto PDA plates, and incubated at 35° C. Colony counts were determined after 24 h of incubation. The experiments were performed in duplicate (FIG. 2).
Time-kill assays with ebsulfur (2a) and analogue 3a (FIG. 2) were performed to determine the rate of fungicidal activity of the compounds if the invention.

Data set [6] deals with C. albicans ATCC MYA-1237(R) (strain F). In words: microbe, parasite or virus in culture. The data set is classed as cell-based, Candida albicans. Particulars: strain F; compounds 1-4n and AmB; 48 h, RPMI 1640. The gist of the method:
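Broth microdilution per CLSI M27-A3 with minor modifications, in RPMI 1640 buffered to pH 7.0 with 0.165 M MOPS. Yeast inocula were grown in potato dextrose broth, diluted into RPMI to 5×10^3 CFU/mL, and exposed to two-fold dilutions from 12.5-0.02 μg/mL for 48 h at 35° C.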

Converted amounts (≈) assume the structure as drawn. Like-named read-outs stand apart in the source and are kept apart here. Where only a bound is given, the exact number is not on record here.

`CCCCCn1sc2ccccc2c1=O` [Compound 3a]: the “fold MIC lower than the hemolytic concentration” value in data set [1] (Aspergillus strains) was not below 195 fold; in data set [1] (Candida strains), “at least 5 fold”. In addition, in data set [1] (mRBCs, 1 h at 37° C.), the hemolytic concentration entry is on record as “approximately 3.9 μg/mL”. In addition, the MIC-0 in data set [2] is not above 0.02 µg/mL; in data set [3], not above 0.02 µg/mL; in data set [4] it was not above 0.02 µg/mL; in data set [6], 0.78 µg/mL (≈ 3.52 µM). For the same molecule, the “fungicidal or fungistatic effect” value in data set [5], in data set [5] (1× MIC) and in data set [5] (2× MIC) was “fungistatic” throughout. The “reduction of fungal cells” value in data set [5] came to 4 log.
With `CCCCCCn1sc2ccccc2c1=O` [Compound 3b], the MIC-0 in data set [2] is ≤≤0.02 μg/mL; in data set [3] it was not above 0.02 µg/mL; in data set [4], not above 0.02 µg/mL; in data set [6], 1.56 µg/mL (≈ 6.63 µM).
Regarding `CC(C)(C)n1sc2ccccc2c1=O` [Compound 3g], the MIC-0 in data set [2] was found to be 0.10 µg/mL (≈ 0.482 µM); in data set [3], 0.10 µg/mL (≈ 0.482 µM); in data set [4], 0.10 µg/mL (≈ 0.482 µM); in data set [6] it was 1.56 µg/mL (≈ 7.53 µM).
